Results from patent publication US9512066B2, “Enhancers of protein degradation” (MAX-DELBRUCK-CENTRUM FUR MOLEKULARE MEDIZIN, priority 2009, dated 2016).
Converted amounts (≈) assume the structure as drawn.

Legend:
HTT-Q53 protein = assay: GST-Htt-Q53 filter assay with conformational CAG antibody; assay type: biochemical; settings: samples at 0, 4, 5 and 6 h, 30° C.
Description: GST-Htt-Q53-protein stock solution was ultra-centrifugated (40 min, 55.000 rpm [TLA-55 rotor], 4° C.); the supernatant was diluted with H2O to a final concentration of 2 μM. DMSO as a control, or drugs at various concentrations were added to the supernatant of GST-Htt-Q53 protein which was preincubated with PreScission Protease (GE Healthcare, #27-0843-01) in Tris-buffer (A:B=1:1; A:50 mM Tris, 150 mM NaCl, pH=6.8; B:1 mM EDTA, pH=8.0+10 mM DTT) and incubated at 30° C. (300 rpm). Samples were taken at 0, 4, 5 and 6 h. The samples were diluted with SDS-buffer (4% SDS, 100 mM DTT) and heated at 98° C. for 5 min. Samples were filtered through a cellulose-acetate membrane which was equilibrated with SDS solution (0.1%). The membrane was washed twice (SDS, 0.1%), blocked with skim milk (3% in PBS) for 30 min and developed with CAG antibody over night at 4° C. and with peroxidase labeled anti rabbit-antibody for 1 h at room temperature. The membrane was washed (2×TBS-0.05% Tween-20, 2×TBS) and luminescence was recorded with Chem Glow.

BSA = BSA (Bos taurus, UniProt P02769); assay: Hydrazone hydrolysis in ammonium acetate solution with addition of BSA (RP-HPLC); assay type: physicochemical; settings: bovine, BSA (5 µM) in ammonium acetate solution, 20 μM hydrazone, 10 mM ammonium acetate, read-out: free soluble hydrazone after addition of BSA (converted)
Description: FIG. 4 illustrates the difference in the hydrazone hydrolysis with and without the addition of BSA of product example 1. A freshly prepared 10 mM methanol solution of product example 1 was diluted with an ammonium acetate (10 mM) BSA (5 μM) solution to a final concentration of 20 μM. The free soluble hydrazone was analyzed via RP-HPLC over a sample period of 24 h. The injection volume was 20 μL, the sample was stored at room temperature. The hydrazone peak was exploited for the determination of the hydrazone concentration. After the addition of BSA approximately […] of the available hydrazone was directly associated to the protein. Afterwards, the free hydrazone concentration was almost constant, between 96% and 91%, over the sample period.

tubulin = assay: Tubulin polymerization assay (Cytoskeleton, Inc.); assay type: biochemical; settings: various concentrations
Description: The tubulin polymerization assay (Cytoskeleton, Inc., Denver, Colo., USA, #BK011) was performed in accordance to the instruction manual.

[1] = Insolubility observed in the HepG2 viability assay; assay type: physicochemical; settings: RPMI culture medium of the HepG2 viability assay, 37 °C, kinetic from dmso stock, RPMI medium (1% L-Glu, 10% FCS), read-out: concentration from/at which insoluble
Description: Cell viability was assayed on HepG2 cells. HepG2 cells were cultured in 96-well black culture plates with transparent bottom in RPMI medium (1% L-Glu, 10% FCS). 3 hours after plating, different drug concentrations (0.1 μM-100 μM) or DMSO as control were added. Chlorpromazine hydrochloride (Sigma, # C0982) and cycloheximide (Sigma, # C1988) were used as control substances. Each concentration was run in triplicates. After 48 hours of incubation, Alamar Blue reagent (BIOSOURCE, # DAL1100) was added and plates were incubated for 4 hours at […]. Absorbance was measured in the Tecan-plate reader (Tecan, infinite M200) at 570 nm and 600 nm. Product example 1 was insoluble from a concentration of 50 μM, product example 33 from 30 μM and product example 23 at 100 μM.

Sequence of BSA (P02769 25-607): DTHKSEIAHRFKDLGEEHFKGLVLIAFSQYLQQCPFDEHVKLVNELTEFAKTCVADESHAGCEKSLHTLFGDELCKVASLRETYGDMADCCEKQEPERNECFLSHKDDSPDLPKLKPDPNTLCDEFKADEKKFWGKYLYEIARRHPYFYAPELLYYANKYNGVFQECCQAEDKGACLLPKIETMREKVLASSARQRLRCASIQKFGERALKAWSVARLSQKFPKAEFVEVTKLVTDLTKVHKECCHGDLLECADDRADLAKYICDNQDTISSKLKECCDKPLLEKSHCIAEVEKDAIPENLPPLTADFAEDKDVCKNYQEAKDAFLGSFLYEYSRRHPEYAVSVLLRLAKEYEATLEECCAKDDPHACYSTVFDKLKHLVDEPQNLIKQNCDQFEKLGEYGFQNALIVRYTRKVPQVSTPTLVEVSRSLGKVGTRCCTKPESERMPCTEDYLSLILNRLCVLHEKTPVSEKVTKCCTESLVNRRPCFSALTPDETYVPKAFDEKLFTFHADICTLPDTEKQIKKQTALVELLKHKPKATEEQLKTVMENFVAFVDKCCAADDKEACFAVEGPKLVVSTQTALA

Row | fraction unbound at 20 µM (BSA) | SMILES | change in conformation of the HTT-Q53 protein detected by the conformational CAG antibody (HTT-Q53 protein) | effect on tubulin polymerization (tubulin) | solubility [1]
1 | ~0.83 | Oc1ccc(C=NNc2c(Cl)cc(C(F)(F)F)cc2Cl)c(O)c1 [Example 1, 4-((2-(2,6-Dichloro-4-(trifluoromethyl)phenyl)hydrazono)methyl)benzene-1,3-diol] | time-dependent change in conformation | no effect | ≥ 50 µM
2 | – | Oc1ccc(C=NNc2c(F)c(F)c(F)c(F)c2F)c(O)c1 [Example 23, 4-((2-(Perfluorophenyl)hydrazono)methyl)benzene-1,3-diol] | time-dependent change in conformation | – | 100 µM (≈ 31.8 µg/mL)
3 | – | O=[N+]([O-])c1ccc(NN=Cc2ccc(O)cc2O)cc1 [Example 33, 4-((2-(4-Nitrophenyl)hydrazono)methyl)benzene-1,3-diol] | – | – | ≥ 30 µM
